Measurements from ChEMBL document CHEMBL1201862, “PubChem BioAssay data set” (2004).
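Five concentrations, 48 hours, 96-well plates. The concentration for 50% growth inhibition is given as GI50.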 The source made the active and inactive calls. No stated cut-off is given here; in the data, active = GI50 up to about 1.1 µM and inactive = higher.

Columns and labels:
Test in all cases: DTP human tumour cell line panel, 48 h
786-0 = test system: 786-0
A549 = test system: A549
BT-549 = test system: BT-549
CAKI-1 = test system: CAKI-1
CCRF-CEM = test system: CCRF-CEM
EKVX = test system: EKVX
HCC 2998 = test system: HCC 2998
HOP-62 = test system: HOP-62
Hs-578T = test system: Hs-578T
KM12 = test system: KM12
MDA-MB-231 = test system: MDA-MB-231
MDA-MB-435 = test system: MDA-MB-435
MDA-N = test system: MDA-N
MOLT-4 = test system: MOLT-4
Malme-3M = test system: Malme-3M
NCI-H522 = test system: NCI-H522
PC-3 = test system: PC-3
SK-MEL-5 = test system: SK-MEL-5
SNB-19 = test system: SNB-19
TK-10 = test system: TK-10

Measured: GI50

COc1ccc(C2c3cc4c(cc3OC(NNC(N)=O)C2C)OCO4)cc1 (stereo not given)
inactive: 786-0 5.26 µM | A549 7.73 µM | BT-549 7.16 µM | CAKI-1 6.71 µM | CCRF-CEM 2.95 µM | EKVX 21.5 µM | HCC 2998 8.51 µM | HOP-62 6.28 µM | Hs-578T 3.53 µM | KM12 4.78 µM | MDA-MB-231 11.7 µM | MDA-MB-435 2.14 µM | MDA-N 1.87 µM | MOLT-4 3.94 µM | Malme-3M 6.67 µM | NCI-H522 3.45 µM | PC-3 4.69 µM | SK-MEL-5 6.85 µM | SNB-19 13.7 µM | TK-10 25.8 µM

CCOC(=O)C1(Cc2ccccc2)C=CN(C(=O)c2ccccc2)C=C1
inactive: 786-0 43.7 µM | A549 42.4 µM | BT-549 33.8 µM | CAKI-1 38.5 µM | CCRF-CEM 20.9 µM | EKVX 32.9 µM | HCC 2998 63.4 µM | HOP-62 45.9 µM | Hs-578T 32.5 µM | KM12 36.9 µM | MDA-MB-231 37 µM | MDA-MB-435 29.2 µM | MDA-N 24.3 µM | MOLT-4 20.6 µM | Malme-3M 26.6 µM | NCI-H522 24.5 µM | PC-3 25.4 µM | SK-MEL-5 15.1 µM | SNB-19 46.5 µM | TK-10 28.4 µM

CCCCCOC(=O)C(=O)Nc1[nH]nnc1C(N)=O
inactive: 786-0 > 100 µM | A549 > 100 µM | BT-549 > 100 µM | CAKI-1 > 100 µM | CCRF-CEM > 100 µM | EKVX > 100 µM | HCC 2998 > 100 µM | HOP-62 > 100 µM | Hs-578T > 100 µM | KM12 > 100 µM | MDA-MB-231 > 100 µM | MDA-MB-435 > 100 µM | MDA-N > 100 µM | MOLT-4 > 100 µM | Malme-3M > 100 µM | NCI-H522 > 100 µM | PC-3 > 100 µM | SK-MEL-5 > 100 µM | SNB-19 > 100 µM | TK-10 > 100 µM

O=S(=O)(CCCCl)SCCCCl
inactive: 786-0 17.4 µM | A549 68.4 µM | BT-549 11.2 µM | CAKI-1 > 57.1 µM | CCRF-CEM 9.1 µM | EKVX > 100 µM | HCC 2998 > 100 µM | HOP-62 > 87.5 µM | Hs-578T 27.8 µM | KM12 46.3 µM | MDA-MB-231 29.9 µM | MDA-MB-435 25.8 µM | MDA-N 27 µM | MOLT-4 3.17 µM | Malme-3M 33.6 µM | NCI-H522 17.1 µM | PC-3 30.1 µM | SK-MEL-5 30.7 µM | SNB-19 > 95.1 µM | TK-10 74.6 µM

O=C1CSC(/C=C/c2ccccc2)N1c1ccc(-c2ccc(-n3c(-c4ccccc4)nc4ccccc4c3=O)cc2)cc1 (stereo not given)
inactive: 786-0 13.4 µM | A549 24 µM | BT-549 17.2 µM | CAKI-1 33.7 µM | CCRF-CEM 20.3 µM | EKVX 15.5 µM | HCC 2998 66.2 µM | HOP-62 28.5 µM | Hs-578T > 10 µM | KM12 17.3 µM | MDA-MB-231 25.1 µM | MDA-MB-435 19.4 µM | MDA-N 23.4 µM | MOLT-4 15.7 µM | Malme-3M 23.1 µM | NCI-H522 17.8 µM | PC-3 22.2 µM | SK-MEL-5 13.8 µM | SNB-19 21.8 µM | TK-10 39.5 µM

C=C1CC2C[C@H](OS(=O)(=O)c3ccc(C)cc3)C(C1)N2C (stereo not given in full)
inactive: 786-0 > 100 µM | A549 > 100 µM | BT-549 > 100 µM | CAKI-1 > 100 µM | CCRF-CEM > 100 µM | EKVX > 100 µM | HCC 2998 > 100 µM | HOP-62 > 100 µM | Hs-578T > 100 µM | KM12 > 100 µM | MDA-MB-231 > 100 µM | MDA-MB-435 > 100 µM | MDA-N > 100 µM | MOLT-4 > 100 µM | Malme-3M > 100 µM | NCI-H522 > 100 µM | PC-3 > 100 µM | SK-MEL-5 > 100 µM | SNB-19 > 100 µM | TK-10 > 100 µM

Cc1cc(/N=N/c2c(O)ccc3ccccc23)ccc1/N=N/c1cccc([N+](C)(C)C)c1
inactive: 786-0 21 µM | A549 12.1 µM | BT-549 3.08 µM | CAKI-1 22.7 µM | CCRF-CEM 7.16 µM | EKVX 17.6 µM | HCC 2998 21.1 µM | HOP-62 11.4 µM | Hs-578T 4.17 µM | KM12 3.37 µM | MDA-MB-231 8.57 µM | MDA-MB-435 6.25 µM | MDA-N 12.9 µM | MOLT-4 10.8 µM | Malme-3M 9.64 µM | NCI-H522 3.98 µM | PC-3 6.81 µM | SK-MEL-5 2.86 µM | SNB-19 3.71 µM | TK-10 29.5 µM
